# Measured values taken from article PMC12514245, “Impaired migration and lung invasion of human melanoma by a novel small molecule targeting the transmembrane domain of death receptor p75^NTR” (EMBO Molecular Medicine, 2025).
# Several values for one entry are separate records, joined by “and”; a condition that tells them apart may be missing. Equal entries are not always repeated.
# Columns and labels:
# p75^NTR TMD = biological target: T1, p75^NTR TMD (Homo sapiens, UniProt P08138); assay: AraTM assay, wild-type p75NTR TMD (GFP/OD630); assay type: cell-based; conditions: for GFP/OD630, p75, mean / GFP/OD630, p75NTR WT, Mean: N=3; for GFP/OD630, p75NTR WT, n1-n3: WT without drug = 100%; for GFP/OD630, Mean / GFP/OD630, individual replicates: Figure 5B
# T1 sequence (P08138 250-275 limits assumed): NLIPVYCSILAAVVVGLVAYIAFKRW
# p75^NTR TMD V254A = biological target: T2, p75^NTR TMD V254A (Homo sapiens, UniProt P08138, V254A); assay: AraTM assay, V254A mutant p75NTR TMD; assay type: cell-based; conditions: for GFP/OD630, p75NTR V254A, Mean: N=3
# T2 construct: Comparison of wild-type (WT) p75^NTR TMD and I252A, P253G and V254A mutants in the AraTM assay; expressed in transfected cells; host or cells: E. coli AS19 (LPS-negative)
# T2 sequence (P08138 250-275 V254A): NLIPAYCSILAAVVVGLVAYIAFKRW
# A875 NT cells = assay: Wound healing cell motility assay, A875 NT; assay type: cell-based, human; conditions: for Wound area, Mean: N=3; for Wound area (Fold), Mean / Wound area (Fold), individual replicates: 10uM
# Method: For wound healing assay, cells were grown until confluency and subjected to a wound across the cell mono-layer. Cells were then incubated with serum-free media either with DMSO or a small molecule (with or without 5 µM Q_VD_poH) and imaged at specific time-points. Cell migration is reflected as fold change in wound area over time.
# [1] = 5μM Q_VD_poH + 10μM Div17E5, 0 hours
# [2] = 5μM Q_VD_poH + 10μM Div17E5, 3 hours
# [3] = 5μM Q_VD_poH + 10μM Div17E5, 6 hours
# [4] = 5μM Q_VD_poH + 10μM Div17E5, 9 hours
# [5] = 5μM Q_VD_poH + 10μM Div17E5, 12 hours
# [6] = 5μM Q_VD_poH + 10μM Div17E5, 15 hours
# [7] = 5μM Q_VD_poH + 10μM Div17E5, 18 hours
# [8] = 5μM Q_VD_poH + 10μM Div17E5, 21 hours
# [9] = 5μM Q_VD_poH + 10μM Div17E5, 24 hours
smiles,measurement,setting,value
Oc1ccc(-c2cncc(Nc3ccc(Br)c(Cl)c3)n2)cc1 [Div17E5],"GFP/OD630, p75, single replicates",p75^NTR TMD; Div17E5 1 μM,95 and 91 and 115
same,"GFP/OD630, p75, mean",p75^NTR TMD; Div17E5 1 μM,100
same,"GFP/OD630, p75, single replicates",p75^NTR TMD; Div17E5 2.5 μM,82 and 86 and 101
same,"GFP/OD630, p75, mean",p75^NTR TMD; Div17E5 2.5 μM,90
same,"GFP/OD630, p75, single replicates",p75^NTR TMD; Div17E5 5 μM,66 and 81 and 88
same,"GFP/OD630, p75, mean",p75^NTR TMD; Div17E5 5 μM,78
same,"GFP/OD630, p75NTR WT, Mean",p75^NTR TMD; Div17E5 7.5 uM,69%
same,"GFP/OD630, p75NTR WT, n1-n3",p75^NTR TMD; Div17E5 7.5 uM,70% and 62% and 76%
same,"GFP/OD630, p75, single replicates",p75^NTR TMD; Div17E5 10 μM,49 and 55 and 68
same,"GFP/OD630, p75, mean",p75^NTR TMD; Div17E5 10 μM,57
same,"GFP/OD630, p75NTR WT, Mean",p75^NTR TMD; Div17E5 15 uM,61%
same,"GFP/OD630, p75NTR WT, n1-n3",p75^NTR TMD; Div17E5 15 uM,62% and 58% and 63%
same,"GFP/OD630, p75, single replicates",p75^NTR TMD; Div17E5 20 μM,39 and 55 and 49
same,"GFP/OD630, p75NTR WT, Mean",p75^NTR TMD; Div17E5 20 uM,45%
same,"GFP/OD630, p75, mean",p75^NTR TMD; Div17E5 20 μM,48
same,"GFP/OD630, p75NTR WT, n1-n3",p75^NTR TMD; Div17E5 20 uM,50% and 41% and 44%
same,"GFP/OD630, p75, single replicates",p75^NTR TMD; Div17E5 50 μM,33 and 42 and 39
same,"GFP/OD630, p75NTR WT, Mean",p75^NTR TMD; Div17E5 50 uM,45%
same,"GFP/OD630, p75, mean",p75^NTR TMD; Div17E5 50 μM,38
same,"GFP/OD630, p75NTR WT, n1-n3",p75^NTR TMD; Div17E5 50 uM,43% and 46% and 47%
same,"GFP/OD630, Mean",p75^NTR TMD; compound 2 μM,0.93
same,"GFP/OD630, individual replicates",p75^NTR TMD; compound 2 μM,0.98 and 0.93 and 0.88
same,"GFP/OD630, Mean",p75^NTR TMD; compound 4 μM,0.86
same,"GFP/OD630, individual replicates",p75^NTR TMD; compound 4 μM,0.83 and 0.92 and 0.82
same,"GFP/OD630, Mean",p75^NTR TMD; compound 6 μM,0.82
same,"GFP/OD630, individual replicates",p75^NTR TMD; compound 6 μM,0.86 and 0.78 and 0.83
same,"GFP/OD630, Mean",p75^NTR TMD; compound 8 μM,0.44
same,"GFP/OD630, individual replicates",p75^NTR TMD; compound 8 μM,0.43 and 0.51 and 0.37
same,"GFP/OD630, Mean",p75^NTR TMD; compound 10 μM,0.43
same,"GFP/OD630, individual replicates",p75^NTR TMD; compound 10 μM,0.41 and 0.48 and 0.40
same,IC50,p75^NTR TMD; dose-response,12 µM
same,selectivity for the p75NTR TMD as compared to TMDs of two unrelated proteins,p75^NTR TMD; vs α2β3 integrin and M2 TMDs,good selectivity
same,effect of Val254 mutation on compound activity in AraTM assay,p75^NTR TMD V254A,abolished
same,"GFP/OD630, p75NTR V254A, n1-n3",p75^NTR TMD V254A; Div17E5 7.5 uM,87% and 97% and 91%
same,"GFP/OD630, p75NTR V254A, Mean",p75^NTR TMD V254A; Div17E5 7.5 uM,92%
same,"GFP/OD630, p75NTR V254A, n1-n3",p75^NTR TMD V254A; Div17E5 15 uM,86% and 95% and 96%
same,"GFP/OD630, p75NTR V254A, Mean",p75^NTR TMD V254A; Div17E5 15 uM,92%
same,"GFP/OD630, p75NTR V254A, n1-n3",p75^NTR TMD V254A; Div17E5 20 uM,89% and 96% and 99%
same,"GFP/OD630, p75NTR V254A, Mean",p75^NTR TMD V254A; Div17E5 20 uM,95%
same,"GFP/OD630, p75NTR V254A, n1-n3",p75^NTR TMD V254A; Div17E5 50 uM,95% and 85% and 98%
same,"GFP/OD630, p75NTR V254A, Mean",p75^NTR TMD V254A; Div17E5 50 uM,93%
same,cell motility (wound healing),A875 NT cells,significantly impaired motility
same,"Wound area, n1-n3",A875 NT cells; [1],1.151 Fold and 0.989 Fold and 0.859 Fold
same,"Wound area, Mean",A875 NT cells; [1],1.000 Fold
same,"Wound area, n1-n3",A875 NT cells; [2],0.948 Fold and 1.003 Fold and 1.022 Fold
same,"Wound area, Mean",A875 NT cells; [2],0.991 Fold
same,"Wound area, n1-n3",A875 NT cells; [3],0.944 Fold and 0.988 Fold and 1.047 Fold
same,"Wound area, Mean",A875 NT cells; [3],0.993 Fold
same,"Wound area, n1-n3",A875 NT cells; [4],0.936 Fold and 0.934 Fold and 1.001 Fold
same,"Wound area, Mean",A875 NT cells; [4],0.957 Fold
same,"Wound area, n1-n3",A875 NT cells; [5],0.937 Fold and 0.894 Fold and 1.002 Fold
same,"Wound area, Mean",A875 NT cells; [5],0.944 Fold
same,"Wound area, n1-n3",A875 NT cells; [6],0.938 Fold and 0.874 Fold and 0.985 Fold
same,"Wound area, Mean",A875 NT cells; [6],0.932 Fold
same,"Wound area, n1-n3",A875 NT cells; [7],0.920 Fold and 0.852 Fold and 0.976 Fold
same,"Wound area, Mean",A875 NT cells; [7],0.916 Fold
same,"Wound area, n1-n3",A875 NT cells; [8],0.922 Fold and 0.829 Fold and 0.962 Fold
same,"Wound area, Mean",A875 NT cells; [8],0.904 Fold
same,"Wound area, n1-n3",A875 NT cells; [9],0.916 Fold and 0.831 Fold and 0.939 Fold
same,"Wound area, Mean",A875 NT cells; [9],0.895 Fold
same,"wound healing assay, comparison of Div17E5, MS_18 and MS_63",A875 NT cells; 10 µM,the better of the three
same,"Wound area, Mean","A875 NT cells; 10μM Div17E5, 0 hours",1.000 Fold
same,"Wound area, n1-n3","A875 NT cells; 10μM Div17E5, 3 hours",1.026 Fold and 0.986 Fold and 1.104 Fold
same,"Wound area, Mean","A875 NT cells; 10μM Div17E5, 3 hours",1.039 Fold
same,"Wound area, n1-n3","A875 NT cells; 10μM Div17E5, 6 hours",0.988 Fold and 0.956 Fold and 1.073 Fold
same,"Wound area, Mean","A875 NT cells; 10μM Div17E5, 6 hours",1.006 Fold
same,"Wound area, n1-n3","A875 NT cells; 10μM Div17E5, 9 hours",0.922 Fold and 0.923 Fold and 1.017 Fold
same,"Wound area, Mean","A875 NT cells; 10μM Div17E5, 9 hours",0.954 Fold
same,"Wound area, n1-n3","A875 NT cells; 10μM Div17E5, 12 hours",0.909 Fold and 0.918 Fold and 0.979 Fold
same,"Wound area, Mean","A875 NT cells; 10μM Div17E5, 12 hours",0.935 Fold
same,"Wound area, n1-n3","A875 NT cells; 10μM Div17E5, 15 hours",0.913 Fold and 0.881 Fold and 0.951 Fold
same,"Wound area, Mean","A875 NT cells; 10μM Div17E5, 15 hours",0.915 Fold
same,"Wound area, n1-n3","A875 NT cells; 10μM Div17E5, 18 hours",0.881 Fold and 0.866 Fold and 0.915 Fold
same,"Wound area, Mean","A875 NT cells; 10μM Div17E5, 18 hours",0.887 Fold
same,"Wound area, n1-n3","A875 NT cells; 10μM Div17E5, 21 hours",0.886 Fold and 0.863 Fold and 0.915 Fold
same,"Wound area, Mean","A875 NT cells; 10μM Div17E5, 21 hours",0.888 Fold
same,"Wound area, n1-n3","A875 NT cells; 10μM Div17E5, 24 hours",0.865 Fold and 0.854 Fold and 0.889 Fold
same,"Wound area, Mean","A875 NT cells; 10μM Div17E5, 24 hours",0.870 Fold
same,"Wound area (Fold), Mean",A875 NT cells; 0 hours,1 Fold
same,"Wound area (Fold), individual replicates",A875 NT cells; 0 hours,1.000 Fold
same,"Wound area (Fold), Mean",A875 NT cells; 3 hours,0.931 Fold
same,"Wound area (Fold), individual replicates",A875 NT cells; 3 hours,0.928 Fold and 0.933 Fold
same,"Wound area (Fold), Mean",A875 NT cells; 6 hours,0.912 Fold
same,"Wound area (Fold), individual replicates",A875 NT cells; 6 hours,0.898 Fold and 0.926 Fold
